± gives the standard deviation of the averaged measurements.
How the values were obtained:
Conditions in all cases: 72 h
Caco-2 [1] = experiment: cell viability relative to DMSO; higher = less toxic
Calu-3 [2] = experiment: as above
HepG2 [3] = experiment: as above
U2OS [4] = experiment: as above
Vero E6 [5] = experiment: as above
Caco-2 [6] = experiment: relative viability EC50 (midpoint between 100% and the lowest measured viability); higher = less toxic
Calu-3 [7] = experiment: as above
HepG2 [8] = experiment: as above
U2OS [9] = experiment: as above
Vero E6 [10] = experiment: as above
Caco-2 [11] = experiment: drug sensitivity score (DSS) for viability; higher = more toxic; extreme values may be limits of the assay
Calu-3 [12] = experiment: as above
HepG2 [13] = experiment: as above
U2OS [14] = experiment: as above
Vero E6 [15] = experiment: as above

SMILES | cell viability (Caco-2 [1]; 1 nM) [%] | cell viability (Caco-2 [1]; 10 nM) [%] | cell viability (Caco-2 [1]; 100 nM) [%] | cell viability (Caco-2 [1]; 1000 nM) [%] | cell viability (Caco-2 [1]; 10000 nM) [%] | cell viability (Calu-3 [2]; 1 nM) [%] | cell viability (Calu-3 [2]; 10 nM) [%] | cell viability (Calu-3 [2]; 100 nM) [%] | cell viability (Calu-3 [2]; 1000 nM) [%] | cell viability (Calu-3 [2]; 10000 nM) [%] | cell viability (HepG2 [3]; 1 nM) [%] | cell viability (HepG2 [3]; 10 nM) [%] | cell viability (HepG2 [3]; 100 nM) [%] | cell viability (HepG2 [3]; 1000 nM) [%] | cell viability (HepG2 [3]; 10000 nM) [%] | cell viability (U2OS [4]; 1 nM) [%] | cell viability (U2OS [4]; 10 nM) [%] | cell viability (U2OS [4]; 100 nM) [%] | cell viability (U2OS [4]; 1000 nM) [%] | cell viability (U2OS [4]; 10000 nM) [%] | cell viability (Vero E6 [5]; 1 nM) [%] | cell viability (Vero E6 [5]; 10 nM) [%] | cell viability (Vero E6 [5]; 100 nM) [%] | cell viability (Vero E6 [5]; 1000 nM) [%] | cell viability (Vero E6 [5]; 10000 nM) [%] | relative viability EC50 (Caco-2 [6]) [µM] | relative viability EC50 (Calu-3 [7]) [µM] | relative viability EC50 (HepG2 [8]) [µM] | relative viability EC50 (U2OS [9]) [µM] | relative viability EC50 (Vero E6 [10]) [µM] | drug sensitivity score (Caco-2 [11]) | drug sensitivity score (Calu-3 [12]) | drug sensitivity score (HepG2 [13]) | drug sensitivity score (U2OS [14]) | drug sensitivity score (Vero E6 [15])
CCOC(=O)C1=C(N)Oc2ccc(Br)cc2C1C(C#N)C(=O)OCC (stereo not given) [HA-14-1] | 99 ± 3.9 | 95.2 ± 4.1 | 104 ± 4.9 | 99.7 ± 4.6 | 99.5 ± 5 | 95.2 ± 7.3 | 105 ± 8.6 | 97 ± 0.99 | 98.2 ± 4.5 | 108.6 ± 0.14 | 100 ± 2.5 | 97.3 ± 9.6 | 98.2 ± 4.7 | 95.7 ± 7.4 | 96.8 ± 7.7 | 95 | 99.9 | 99 | 101 | 110 | 93 | 100 | 90 | 97.7 | 99.3 | > 10 | > 10 | > 10 | > 10 | > 10 | 0 | 0 | 0 | 0 | 0
N[C@@H](Cc1ccc(O)cc1)C(=O)NCC(=O)NCC(=O)O [IMREG-1] | 98.2 | 91.6 | 103 | 91.3 | 97.1 | 102 | 99.5 | 101 | 98.5 | 108 | 101 | 102 | 92 | 103 | 86.8 | 104 | 95 | 97.6 | 93.5 | 102 | 90.7 | 96.8 | 92.6 | 97.9 | 89.8 | > 10 | > 10 | > 10 | > 10 | > 10 | 0 | 0 | 0.1 | 0 | 0
CC(=O)NCCC(=O)N[C@@H](Cc1c[nH]cn1)C(=O)O [N-acetylcarnosine] | 97.3 | 105 | 88.7 | 86.5 | 112 | 106 | 99.2 | 94.5 | 101 | 96.3 | 98.8 | 88.3 | 93.3 | 96.2 | 87.9 | 98 | 101 | 101 | 97.5 | 94.7 | 112 | 92.1 | 102 | 108 | 98.4 | > 10 | > 10 | > 10 | > 10 | > 10 | 0 | 0 | 0 | 0 | 0
O=C(O)c1cc([N+](=O)[O-])ccc1NCCCc1ccccc1 [NPPB] | 102 | 87.7 | 93.5 | 95.5 | 94.5 | 99.7 | 105 | 101 | 114 | 96.2 | 91.7 | 101 | 97.5 | 102 | 99.9 | 101 | 98.3 | 100 | 96.4 | 94.8 | 94.9 | 98.3 | 90.5 | 94 | 105 | > 10 | > 10 | > 10 | > 10 | > 10 | 0 | 0 | 0 | 0 | 0
N#Cc1ccc(NCCNCC(=O)N2CCC[C@H]2C#N)nc1 [NVP-DPP728] | 96.6 | 100 | 97.1 | 106 | 104 | 101 | 92.1 | 96.5 | 104 | 110 | 112 | 98.6 | 102 | 97.3 | 106 | 96.2 | 98.3 | 101 | 102 | 99.4 | 97.5 | 97.8 | 90.3 | 91.6 | 104 | > 10 | > 10 | > 10 | > 10 | > 10 | 0 | 0 | 0 | 0 | 0
CCCCCCCCCCCCCCCC(=O)C(F)(F)F [PACOCF3] | 101 | 98.6 | 104 | 92.3 | 96.8 | 99.6 | 93.5 | 91.2 | 83.2 | 102 | 99.6 | 108 | 102 | 104 | 105 | 107 | 103 | 106 | 97.2 | 102 | 101 | 101 | 96.6 | 102 | 101 | > 10 | > 10 | > 10 | > 10 | > 10 | 0 | 0 | 0 | 0 | 0

From the supplement of paper PMC13380429
